US20240400584A1, “COMPOUNDS AND METHODS FOR MODULATING SPLICING” (REMIX THERAPEUTICS INC., priority 2021, published 2024)

Key:
HTT [1] = experiment: RT-qPCR splicing assay, HTT AJ/CJ mRNA; format: cell-based, human; conditions: Homo sapiens, A673 or K562 cells; for IC50: decrease in canonical junction mRNA; for AC50: increase in alternative junction mRNA
Procedure, shortened: (§1)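 A673 or K562 cells were treated for 24 h at 37° C with an 11-point 3-fold compound series (top 10 uM, DMSO ≤0.25%). Lysates underwent RT-qPCR for the canonical (CJ) and alternative-exon (AJ) junctions, normalized to GAPDH, GUSB or PPIA, then to DMSO (ΔΔCt), giving RQ and percentage response.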

MYB [2] = experiment: RT-qPCR splicing assay, MYB AJ/CJ mRNA; format: cell-based; conditions: Homo sapiens, A673 or K562 cells, 24 hours; for IC50: decrease in canonical junction mRNA; for AC50: increase in alternative junction mRNA
Procedure, shortened: as §1

HTT [3] = experiment: Gene panel canonical junction qPCR assay, HTT CJ mRNA (Table 7); format: cell-based, human; conditions: Homo sapiens, read-out: HTT CJ mRNA decrease IC50
Procedure, shortened: (§2)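 IC50 values reflect compound concentration giving 50% reduction in canonical exon–exon junction mRNA. Cell lysates from A673 or K562 treatments were reverse-transcribed and probed by junction-spanning qPCR, normalized to a housekeeper and vehicle, then fitted to a 4-parameter logistic equation.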

SMN2 = experiment: Gene panel canonical junction qPCR assay, SMN2 CJ mRNA (Table 7); format: cell-based; conditions: Homo sapiens, read-out: SMN2 CJ mRNA decrease IC50
Procedure, shortened: as §2

MYB [4] = experiment: Gene panel canonical junction qPCR assay, MYB CJ mRNA (Table 7); format: cell-based; conditions: Homo sapiens, read-out: MYB CJ mRNA decrease IC50
Procedure, shortened: as §2

Target C = experiment: Gene panel canonical junction qPCR assay, Target C CJ mRNA (Table 7); format: cell-based, human; conditions: Homo sapiens, read-out: Target C CJ mRNA decrease IC50
Procedure, shortened: as §2

SMILES | IC50 (HTT [1]; 24 h) | AC50 (HTT [1]; 24 h) | IC50 (MYB [2]) | AC50 (MYB [2]) | IC50 (HTT [3]) | IC50 (SMN2) | IC50 (MYB [4]) | IC50 (Target C) | IC50 (HTT [1]; 24 hours) | AC50 (HTT [1]; 24 hours)
COc1cc(-c2ccc3c(c2)COc2nc(N4CCN5CCCC5C4)ccc2-3)cnn1 (stereo not drawn) [Compound 283] | 0.1 to 1 µM | 1 to 10 µM | 1 to 10 µM | 1 to 10 µM | 0.1 to 1 µM | 0.1 to 1 µM | 1 to 10 µM | 1 to 10 µM | – | –
CCc1cc(-c2ccc3c(c2)COc2nc(N4CCC(NC(C)(C)C)C4)ccc2-3)cnn1 (stereo not drawn) [Compound 284, N-tert-butyl-1-[8-(6-ethylpyridazin-4-yl)-6H-isochromeno[3,4-b]pyridin-3-yl]pyrrolidin-3-amine] | > 10 µM | > 10 µM | > 10 µM | > 10 µM | > 10 µM | 1 to 10 µM | > 10 µM | > 10 µM | – | –
COc1cc(-c2ccc3c(c2)COc2nc(N4CCC(N)CC4)ccc2-3)cnn1 [Compound 288] | 1 to 10 µM | 1 to 10 µM | > 10 µM | > 10 µM | 1 to 10 µM | 1 to 10 µM | > 10 µM | > 10 µM | – | –
COc1cc(-c2ccc3c(c2)COc2cc(N4CCC(NC(C)(C)C)C4)ncc2-3)cnn1 (stereo not drawn) [Compound 289, N-(tert-butyl)-1-(8-(6-methoxypyridazin-4-yl)-6H-isochromeno [4,3-c]pyridin-3-yl)pyrrolidin-3-amine] | 0.1 to 1 µM | 1 to 10 µM | 0.1 to 1 µM | 1 to 10 µM | 0.1 to 1 µM | < 0.1 µM | 0.1 to 1 µM | 1 to 10 µM | – | –
COc1cnnc(-c2ccc3c(c2)COc2nc(N4CCC(NC(C)(C)C)C4)ccc2-3)c1 (stereo not drawn) [Compound 292] | > 10 µM | > 10 µM | > 10 µM | > 10 µM | > 10 µM | 1 to 10 µM | > 10 µM | 1 to 10 µM | – | –
CN(c1ncc2c(n1)OCc1cc(-c3cn[nH]c3)ccc1-2)[C@@H]1C[C@H]2CC[C@@H](C1)N2 [Compound 294] | < 0.1 µM | 0.1 to 1 µM | 0.1 to 1 µM | 1 to 10 µM | < 0.1 µM | 0.1 to 1 µM | 0.1 to 1 µM | 0.1 to 1 µM | – | –
COc1cc(-c2ccc3c(c2)COc2nc(N(C)[C@@H]4C[C@H]5CC[C@@H](C4)N5)ncc2-3)cnn1 [Compound 295] | < 0.1 µM | < 0.1 µM | 0.1 to 1 µM | 1 to 10 µM | < 0.1 µM | < 0.1 µM | 0.1 to 1 µM | 0.1 to 1 µM | – | –
COc1cc(-c2ccc3c(c2)COc2nc(N4CCN[C@@H](C5CC5)C4)ccc2-3)cnn1 [Compound 296] | 0.1 to 1 µM | 0.1 to 1 µM | 0.1 to 1 µM | 0.1 to 1 µM | 0.1 to 1 µM | < 0.1 µM | 0.1 to 1 µM | 0.1 to 1 µM | – | –
COc1cc(-c2ccc3c(c2)COc2nc(N4CCN[C@H](C5CC5)C4)ccc2-3)cnn1 [Compound 297] | < 0.1 µM | 0.1 to 1 µM | 0.1 to 1 µM | 0.1 to 1 µM | < 0.1 µM | < 0.1 µM | 0.1 to 1 µM | 0.1 to 1 µM | – | –
COc1cc(-c2ccc3c(c2)COc2nc(O[C@@H]4C[C@H]5CC[C@@H](C4)N5)ncc2-3)cnn1 [Compound 298] | 0.1 to 1 µM | 0.1 to 1 µM | 1 to 10 µM | 0.1 to 1 µM | 0.1 to 1 µM | < 0.1 µM | 1 to 10 µM | 1 to 10 µM | – | –
COc1cc(-c2ccc3c(c2)COc2nc(OC4CC(C)(C)NC(C)(C)C4)ncc2-3)cnn1 [Compound 299] | 0.1 to 1 µM | 0.1 to 1 µM | 1 to 10 µM | 1 to 10 µM | 0.1 to 1 µM | 0.1 to 1 µM | 1 to 10 µM | 1 to 10 µM | – | –
CNC1CCN(c2ccc3c(n2)OCc2cc(-c4cnnc(OC)c4)ccc2-3)CC1 [Compound 300, 1-[8-(6-methoxypyridazin-4-yl)-6H-isochromeno[3,4-b]pyridin-3-yl]-N-methylpiperidin-4-amine] | 1 to 10 µM | 1 to 10 µM | > 10 µM | > 10 µM | 1 to 10 µM | 0.1 to 1 µM | > 10 µM | 1 to 10 µM | – | –
COc1cc(-c2ccc3c(c2)COc2nc(N4CCC(NC(C)C)CC4)ccc2-3)cnn1 [Compound 301, N-isopropyl-1-[8-(6-methoxypyridazin-4-yl)-6H-isochromeno[3,4-b]pyridin-3-yl] piperidin-4-amine] | – | – | 1 to 10 µM | 1 to 10 µM | 1 to 10 µM | 1 to 10 µM | 1 to 10 µM | 1 to 10 µM | 1 to 10 µM | 0.1 to 1 µM
COc1cc(-c2ccc3c(c2)COc2nc(N4CCC(NC(C)(C)C)CC4)ccc2-3)cnn1 [Compound 302] | > 10 µM | > 10 µM | > 10 µM | > 10 µM | > 10 µM | > 10 µM | > 10 µM | > 10 µM | – | –
COc1cc(-c2ccc3c(c2)COc2nc(N4CCN[C@@H](C(C)C)C4)ccc2-3)cnn1 [Compound 303] | < 0.1 µM | 0.1 to 1 µM | 0.1 to 1 µM | 0.1 to 1 µM | < 0.1 µM | < 0.1 µM | 0.1 to 1 µM | 0.1 to 1 µM | – | –
COc1cc(-c2ccc3c(c2)COc2nc(N4CCNC(C(C)(C)C)C4)ccc2-3)cnn1 (stereo not drawn) [Compound 304] | < 0.1 µM | < 0.1 µM | 0.1 to 1 µM | 0.1 to 1 µM | < 0.1 µM | < 0.1 µM | 0.1 to 1 µM | 0.1 to 1 µM | – | –
COc1cc(-c2ccc3c(c2)COc2nc(N4CCC(N(C)CC5CC5)C4)ccc2-3)cnn1 (stereo not drawn) [Compound 308] | 0.1 to 1 µM | 1 to 10 µM | 1 to 10 µM | 1 to 10 µM | 0.1 to 1 µM | 0.1 to 1 µM | 1 to 10 µM | 1 to 10 µM | – | –
COc1cc(-c2ccc3c(c2)COc2nc(N4CCC(C)(NC(C)C)C4)ccc2-3)cnn1 (stereo not drawn) [Compound 309] | < 0.1 µM | < 0.1 µM | 0.1 to 1 µM | 0.1 to 1 µM | < 0.1 µM | < 0.1 µM | 0.1 to 1 µM | 0.1 to 1 µM | – | –
CCN(C)C1CCN(c2ccc3c(n2)OCc2cc(-c4cnnc(OC)c4)ccc2-3)C1 (stereo not drawn) [Compound 310] | 0.1 to 1 µM | 0.1 to 1 µM | 0.1 to 1 µM | 1 to 10 µM | 0.1 to 1 µM | 0.1 to 1 µM | 0.1 to 1 µM | 1 to 10 µM | – | –
COc1cc(-c2ccc3c(c2)COc2nc(N4CCC(N(C)C(C)C)C4)ccc2-3)cnn1 (stereo not drawn) [Compound 311] | 0.1 to 1 µM | 0.1 to 1 µM | 1 to 10 µM | 0.1 to 1 µM | 0.1 to 1 µM | 0.1 to 1 µM | 1 to 10 µM | 1 to 10 µM | – | –
COc1cc(-c2ccc3c(c2)COc2nc(N4CCC(N5CCC5)C4)ccc2-3)cnn1 (stereo not drawn) [Compound 312] | 0.1 to 1 µM | 1 to 10 µM | 1 to 10 µM | 1 to 10 µM | 0.1 to 1 µM | 0.1 to 1 µM | 1 to 10 µM | > 10 µM | – | –
